Experimental data published in PubChem BioAssay (NCI).
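Method: 48-hour compound exposure of cells in 96-well plates, five concentrations, linear interpolation of endpoints. At the GI50, growth is halved. TGI marks complete inhibition of growth.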 Where a SMILES comes first, the peptide text is derived from it. The star is where a group is joined. X36 = O=C(c1ccc(-c2ccc(Cl)cc2Cl)o1)*

Tests used:
Test in all cases: NCI-60 cell line screen, 48 h
HS 578T breast = test system: HS 578T breast
DU-145 prostate = test system: DU-145 prostate
A549 NSCLC = test system: A549 NSCLC
MDA-MB-435 = test system: MDA-MB-435
HOP-92 NSCLC = test system: HOP-92 NSCLC
OVCAR-4 ovarian = test system: OVCAR-4 ovarian
NCI-H23 lung = test system: NCI-H23 lung
SW-620 colon = test system: SW-620 colon
SF-295 CNS = test system: SF-295 CNS
NCI-H226 lung = test system: NCI-H226 lung
LOX IMVI melanoma = test system: LOX IMVI melanoma
ACHN renal = test system: ACHN renal
SR leukemia = test system: SR leukemia
MOLT-4 leukemia = test system: MOLT-4 leukemia
SNB-19 CNS = test system: SNB-19 CNS
SNB-75 CNS = test system: SNB-75 CNS
T-47D breast = test system: T-47D breast
A498 renal = test system: A498 renal
NCI/ADR-RES ovarian = test system: NCI/ADR-RES ovarian

Row | Structure (SMILES) | TGI (HS 578T breast) [µM] | TGI (DU-145 prostate) [µM] | TGI (A549 NSCLC) [µM] | TGI (MDA-MB-435) [µM] | TGI (HOP-92 NSCLC) [µM] | TGI (OVCAR-4 ovarian) [µM] | TGI (NCI-H23 lung) [µM] | TGI (SW-620 colon) [µM] | TGI (SF-295 CNS) [µM] | TGI (NCI-H226 lung) [µM] | TGI (LOX IMVI melanoma) [µM] | TGI (ACHN renal) [µM] | TGI (SR leukemia) [µM] | TGI (MOLT-4 leukemia) [µM] | TGI (SNB-19 CNS) [µM] | TGI (SNB-75 CNS) [µM] | TGI (T-47D breast) [µM] | TGI (A498 renal) [µM] | TGI (NCI/ADR-RES ovarian) [µM] | GI50 (LOX IMVI melanoma) [µM]
1 | C=CCCC(=O)CC(O)(C(F)(F)F)C(F)(F)F | > 100 | > 100 | > 100 | > 100 | > 100 | > 100 | > 100 | > 100 | > 100 | > 100 | > 100 | > 100 | > 100 | > 100 | > 100 | > 100 | > 100 | > 100 | > 100 | –
2 | CC(=O)O[C@H]1CC[C@@]2(C)C(=CC[C@H]3[C@@H]4C[C@H](N5CCCC5)[C@H](OC(C)=O)[C@@]4(C)CC[C@@H]32)C1 | > 100 | > 100 | > 100 | 82.4 | > 100 | > 100 | > 100 | > 100 | > 100 | > 100 | > 100 | > 100 | > 100 | > 100 | > 100 | > 100 | > 100 | > 100 | > 100 | –
3 | CCC1(C(=O)OC(C)(C)C)OC12C(C)CCCC2C (stereo not drawn) | > 100 | > 100 | > 100 | > 100 | 85.9 | > 100 | > 100 | > 100 | > 100 | > 100 | 96.1 | 54.2 | 38.3 | 41.2 | > 100 | 97.7 | > 100 | > 100 | > 100 | –
4 | CCC(C)C(NC(=O)CNC(=O)C(Cc1ccccc1)NC(=O)C1CCCN1C(=O)c1ccc(-c2ccc(Cl)cc2Cl)o1)C(=O)OC (stereo not drawn) (X36-PFGI-OMe; configuration not given here) | > 100 | > 100 | > 100 | > 100 | 41.9 | > 100 | > 100 | > 100 | > 100 | > 100 | > 100 | > 100 | 95.6 | > 100 | > 100 | 69.4 | > 100 | 54.4 | > 100 | –
5 | CC1=NN2C(=N)/C(=C/c3ccco3)C(=O)N=C2S1 | > 100 | > 100 | > 100 | > 100 | > 100 | > 100 | > 100 | > 100 | > 100 | > 100 | > 100 | > 100 | > 100 | > 100 | > 100 | > 100 | > 100 | > 100 | > 100 | –
6 | Cc1ccc([C@H]2CC(=O)C[C@H](c3ccc(C)cc3)C23C(=O)c2ccccc2C3=O)cc1 | 58.7 | > 100 | > 100 | > 100 | 49.7 | 47.2 | > 100 | > 100 | 51.9 | > 100 | > 100 | > 100 | 34.3 | > 100 | 79.7 | 34.1 | > 100 | > 100 | 30.2 | –
7 | CN(O)C(=O)c1cccc(Cl)c1 | > 100 | > 100 | > 100 | > 100 | > 100 | > 100 | > 100 | > 100 | > 100 | > 100 | > 100 | > 100 | > 100 | > 100 | > 100 | > 100 | > 100 | > 100 | > 100 | –
8 | CCOP(=O)(OCC)c1c(C(=O)OC)cc(=O)[nH]c1-c1ccc(C)cc1 | 49.1 | 17.5 | 31.5 | 37.4 | 12.3 | 22.5 | 33.5 | 23.5 | 40.9 | 29.6 | > 100 | 9.45 | 11.5 | 20.6 | > 54.3 | 29.3 | 18.1 | 53.8 | > 57.5 | –
9 | Cc1ccc(/C(O)=C/C(=O)C(=O)/C=C(\O)c2ccc(C)cc2C)c(C)c1 | 5.15 | 5.43 | 4.16 | 3.99 | 8.6 | 9.04 | 3.5 | 6.88 | 3.38 | 4.51 | 5.96 | 3.65 | 4.8 | 4.67 | 5.67 | 4.19 | 4.46 | 4.7 | 4.12 | –
10 | CC(=O)c1ccc2c3c1[C@@H]1O[C@@H]1c1cccc(c1-3)[C@@H]1O[C@H]21 | 70.7 | 23.2 | 37.4 | 25.7 | 29.7 | 27.3 | 23.3 | 7.99 | 38.3 | > 95.1 | 6.21 | 37.4 | > 100 | > 100 | > 60.9 | 34.5 | 23.7 | > 85.8 | > 74.6 | 2.6
11 | COc1ccc(Nc2nc(NS(=O)(=O)c3cc(C)c(Cl)cc3S)n[nH]2)cc1 | > 100 | > 100 | > 100 | > 100 | > 100 | > 100 | > 100 | > 100 | > 100 | > 100 | > 100 | > 100 | > 100 | > 100 | > 100 | > 100 | > 100 | > 100 | > 100 | –
12 | O=c1oc2ccccc2c(Nc2ccc3c(c2)Oc2ccccc2O3)c1[N+](=O)[O-] | 82.8 | 90.1 | > 100 | > 100 | 35.2 | 67 | 46.1 | 74.9 | 40.5 | 48.1 | > 100 | 32.7 | > 100 | > 100 | 40.4 | 30.2 | 79.1 | 59 | 69.4 | –
13 | COc1ccc(/C=N/N=C(\N)NO)c(O)c1 | > 10 | > 10 | > 10 | 4.49 | > 10 | > 10 | > 10 | > 10 | > 10 | > 10 | > 10 | > 10 | > 10 | > 10 | > 10 | 2.42 | > 10 | > 10 | > 10 | –
14 | CCc1ccc2oc(-c3cc(O)c(-c4nc5cc(CC)ccc5o4)cc3O)nc2c1 | > 100 | > 100 | > 100 | > 100 | > 100 | – | > 100 | > 100 | – | > 100 | > 100 | > 100 | > 100 | > 100 | > 100 | > 100 | > 100 | > 100 | > 100 | –
15 | NP(=O)(OCC1=CC(=O)c2ccccc2C1=O)N(CCBr)CCBr (stereo not drawn) | 90.7 | 18.1 | 26.5 | 4.74 | 31.5 | 31.6 | 14.2 | > 34.2 | 25.2 | 25.8 | 29.1 | 15.7 | 9.75 | 10.8 | > 55.1 | > 35.8 | 29.7 | 39.3 | > 73.4 | –
16 | COC(=O)[C@H](Cc1ccccc1)NC(=O)[C@H](Cc1ccccc1)NC(=O)[C@@H]1CCCN1C(=O)N[C@H]1C2C=CC(C2)C1C(=O)N1CCC[C@H]1C(=O)N[C@@H](C)C(=O)N[C@H](C(=O)OC)C(C)C (stereo partly drawn) | > 100 | > 100 | > 100 | > 100 | > 100 | > 100 | > 100 | > 100 | > 100 | > 100 | > 100 | > 100 | > 100 | 85.6 | > 100 | > 100 | > 100 | > 100 | > 100 | –
17 | Cc1cc(C)cc(Nc2cc(=O)[nH]c(=O)[nH]2)c1 | > 100 | > 100 | > 100 | > 100 | > 100 | > 100 | > 100 | > 100 | > 100 | > 100 | > 100 | > 100 | > 100 | > 100 | > 100 | > 100 | > 100 | > 100 | > 100 | –
18 | N#C/C(=C\n1ccc(=O)[nH]c1=S)C(N)=O | > 100 | > 100 | > 100 | > 100 | > 100 | > 100 | > 100 | > 100 | > 100 | > 100 | > 100 | > 100 | > 100 | > 100 | > 100 | > 100 | > 100 | > 100 | > 100 | –
19 | CCOC(=O)/C=C(\C(=O)OCC)n1cc(C)c(=O)n(Cc2cnnn2CCCCOC(C)=O)c1=O | > 66.4 | > 55.8 | 60.7 | 26.1 | 4.83 | 58 | 36.8 | > 38.4 | > 76 | 30.4 | 18.9 | 4.83 | 5.86 | > 25.6 | > 66.5 | 38.3 | > 51 | 37.5 | 35.8 | –
20 | O=c1c2ncn(COCCCl)c2n(-c2ccccc2)c(=S)n1-c1ccccc1 | > 100 | > 100 | > 100 | > 100 | > 100 | > 100 | > 100 | > 100 | > 100 | > 100 | > 100 | > 100 | > 100 | > 100 | > 100 | > 100 | > 100 | > 100 | > 100 | –
21 | Cc1ccc2c(=O)cc(-c3cccs3)[nH]c2n1 | > 71.4 | > 100 | > 100 | 5.65 | > 100 | > 100 | > 63.6 | > 30.1 | > 69.6 | 63.7 | > 100 | > 100 | > 100 | > 100 | 82.2 | 63.3 | > 67.7 | > 100 | 11.9 | –
